From patent publication US11578083B2, “Pyrimidinium compounds and their mixtures for combating animal pests” (BASF SE, priority 2017, dated 2023)

Assays:
Type in all cases: in vivo
[1] = tested on: Rice brown plant hopper (Nilaparvata lugens); assay: B.2 Rice brown plant hopper, sprayed rice seedlings; details: 72 h
Procedure: B.2 Rice Brown Plant Hopper (Nilaparvata lugens):
(§1) Rice seedlings are cleaned and washed 24 hours before spraying. The active compounds are formulated in 50:50 acetone:water (vol:vol) and 0.1% vol/vol surfactant (EL 620) is added. Potted rice seedlings are sprayed with 5 ml test solution, air dried, placed in cages and inoculated with 10 adults. Treated rice plants are kept at about 28-29° C. and relative humidity of about 50-60%. Percent mortality is recorded after 72 hours.

Chilo suppressalis [2] = assay: B.3c Rice striped stem borer, drench application; details: Chilo suppressalis neonates, Dose 10 mg, 14 DAT
Excerpt: The test solution was poured onto the soil of each potted rice plant (=replicate) with five tillers each pot. After drench application, treated plants were transferred inside the screenhouse for three days prior to stemborer inoculation inside the laboratory. Three days after drench application, 5 to 6-day old egg masses of CHILSU were used for inoculation. All stemborer-infested potted rice plants were transferred inside the screenhouse 1 day after inoculation until the final assessment. […] Whole plant damage was assessed before cutting each hill at the basal portion for tiller dissection. Each dissected tiller was inspected looking for dead (if possible) and alive stemborer larvae.

[3] = tested on: Cowpea aphid (Aphis craccivora); assay: B.3 Cowpea aphid leaf disk test; details: foliar, 120 h
Procedure: If not otherwise specified, the test solutions are prepared as follows:
The active compound is dissolved at the desired concentration in a mixture of 1:1 (vol:vol) distilled water: acetone. The test solution is prepared at the day of use.
B.3 Cowpea aphid (Aphis craccivora):
For evaluating control of Cowpea aphid through contact or systemic means the test unit consists of 24-well-microtiter plates containing broad bean leaf disks.
The compounds are formulated using a solution containing 75% v/v water and 25% v/v DMSO. Different concentrations of formulated compounds are sprayed onto the leaf disks at 2.5 μl, using a custom built micro atomizer, at two replications.
After application, the leaf disks are air-dried and 5-8 adult aphids placed on the leaf disks inside the microtiter plate wells. The aphids are then allowed to suck on the treated leaf disks and incubated at about 23±1° C. and about 50±5% relative humidity for 5 days. Aphid mortality and fecundity is then visually assessed.

[4] = tested on: Thrips (Dichromothrips corbetti); assay: B.4 Thrips floral-immersion test; details: 72 h
Procedure: B.4 Thrips (Dichromothrips Corbetti):
Dichromothrips corbetti adults used for bioassay are obtained from a colony maintained continuously under laboratory conditions. For testing purposes, the test compound is diluted in a 1:1 mixture of acetone:water (vol:vol), plus 0.01% vol/vol Alkamuls® EL 620 surfactant.
Thrips potency of each compound is evaluated by using a floral-immersion technique. Plastic petri dishes are used as test arenas. All petals of individual, intact orchid flowers are dipped into treatment solution and allowed to dry. Treated flowers are placed into individual petri dishes along with about 20 adult thrips. The petri dishes v then covered with lids. All test arenas are held under continuous light and a temperature of about 28° C. for duration of the assay. After 3 days, the numbers of live thrips are counted on each flower, and along inner walls of each petri dish. The percent mortality is recorded 72 hours after treatment.

[5] = tested on: Rice green leafhopper (Nephotettix virescens); assay: B.1 Rice green leafhopper, sprayed rice seedlings; details: 72 h
Procedure: B.1 Rice Green Leafhopper (Nephotettix virescens):
as §1, with “(vol:vol),” for “(vol:vol)”

Chilo suppressalis [6] = assay: B.3b Rice striped stem borer, foliar spraying
Procedure: All three pots (=replicates) of four to five-week old potted rice per treatment were simultaneously sprayed with 12 mL test solution. After spray application, plants were air dried in the laboratory before inoculation. After air-drying, 5 to 6-day old egg masses of CHILSU were used for inoculation. All stem borer-infested potted rice plants were transferred inside the screenhouse 1 day after inoculation until the final assessment. […] Whole plant damage was assessed before cutting each hill at the basal portion for tiller dissection. Each dissected tiller was inspected looking for dead (if possible) and alive stemborer larvae.

Chilo suppressalis [7] = assay: B.3a Rice stem borer vial bioassay; details: 72 h
Procedure: Field-collected rice straws were washed with tap water and cut for a certain of length. Straws were air dried before placing individually in vials (=replicate, 3×). About 125 μl test solution was sprayed per vial. Treated rice straws in vials were air dried under the laboratory hood. After air-drying, each straw was inoculated with 10 newly-emerged (0-day old) stem borer larvae. Vials were then covered. Set-up was kept in a holding room maintained at 27° C. and 65% RH for three days. At 3 days after inoculation, rice straws were manually dissected for larval mortality assessment. The data (Table C) show activity against two species of rice stem borers.

[8] = tested on: Greenhouse Whitefly (Trialeurodes vaporariorum); assay: Greenhouse Whitefly, egg plant leaf disk (table 5, mixtures); details: solo application Oxazosulfyl, use rate 50 ppm
Procedure: For evaluating control of Greenhouse Whitefly (Trialeurodes vaporariorum) the test unit consisted of 96-well-microtiter plates containing a leaf disk of egg plant leaf disk with white fly eggs. The compounds or mixtures were formulated using a solution containing 75% water and 25% DMSO. Concentrations of formulated compounds or mixtures were sprayed onto the […] at 2.5 μl, using a custom built micro atomizer, at two replications.
(§2) For experimental mixtures in these tests identical volumes of both mixing partners at the desired concentrations respectively, were mixed together.
After application, microtiter plates were incubated at 23±1° C., 65±5% RH for 6 days. Mortality of hatched crawlers was then visually assessed.

[9] = tested on: yellow fever mosquito (Aedes aegypti); details: in vivo
Procedure: For evaluating control of yellow fever mosquito (Aedes aegypti) the test unit consisted of 96-well-microtiter plates containing 200 μl of tap water per well and 5-15 freshly hatched A. aegypti larvae.
The compounds or mixtures were formulated using a solution containing 75% water and 25% DMSO. Different concentrations of formulated compounds or mixtures were sprayed onto the insect diet at 2.5 μl, using a custom built micro atomizer, at two replications.
as §2
After application, microtiter plates were incubated at 28±1° C., 80±5% RH for 2 days. Larval mortality was then visually assessed.

[10] = tested on: vetch aphid (Megoura viciae); assay: Test 1 vetch aphid, leaf disks (mixtures); details: Table 1, solo application Spinetoram, use rate 2 ppm
Excerpt: Synergism can be described as an interaction where the combined effect of two or more compounds is greater than the sum of the individual effects of each of the compounds. The presence of a synergistic effect in terms of percent control, between two mixing partners (X and Y) can be calculated using the Colby equation (Colby, S. R., 1967, Calculating Synergistic and Antagonistic Responses in Herbicide Combinations, Weeds, 15, 20-22):
When the observed combined control effect is greater than the expected combined control effect (E), then the combined effect is synergistic.
The analysis of synergism or antagonism between the mixtures or compositions was determined using Colby's equation.
For evaluating control of vetch aphid (Megoura viciae) through contact or systemic means the test unit consisted of 24-well-microtiter plates containing broad bean leaf disks.
The compounds or mixtures were formulated using a solution containing 75% water and 25% DMSO. Concentrations of formulated compounds or mixtures were sprayed onto the leaf disks at 2.5 μl, using a custom built micro atomizer, at two replications. […]
After application, the leaf disks were air-dried and 5-8 adult aphids placed on the leaf disks inside the microtiter plate wells. […] Aphid mortality and fecundity was then visually assessed.

[11] = tested on: boll weevil (Anthonomus grandis); assay: Test 3 boll weevil, insect diet with eggs (mixtures); details: Table 3.2, solo application Spinetoram, use rate 4 ppm
Procedure: For evaluating control of boll weevil (Anthonomus grandis) the test unit consisted of 24-well-microtiter plates containing an insect diet and 20-30 A. grandis eggs.
The compounds or mixtures were formulated using a solution containing 75% water and 25% DMSO. Concentrations of formulated compounds or mixtures were sprayed onto the insect diet at 20 μl, using a custom built micro atomizer, at two replications.
as §2
After application, microtiter plates were incubated at 23±1° C., 50±5% RH for 5 days. Egg and larval mortality was then visually assessed.

[12] = tested on: brown planthopper (Nilaparvata lugens); assay: Test 6 brown planthopper, foliar spray (mixtures); details: Table 6.2, after 7 days, solo application Spinetoram, use rate 70 ppm
Procedure: For evaluating control of brown planthopper (Nilaparvata lugens) by foliar spray method. Clean potted rice seedlings with upper leaf portion cut are properly labeled. Placed three potted rice plants per treatment concentration/combination on top of the rotating disc (270 mm) and sprayed with the 12 mL spray solution. Treated plants are allowed to air-dry in the laboratory for about an hour. After air-drying, covered each treated rice plant. Each treated plant was infested with brown planthoppers using a suction vacuum. Plants are maintained at 27° C.±1° C., 50±5% RH and 24 hours light conditions in a holding room. Percent mortality is recorded 7 days after infestation by counting both the dead and alive brown planthoppers on the plants and on the water.

Compound: C[n+]1c2n(c([O-])c(-c3ccccc3)c1=O)C(c1cnc(Cl)s1)CS2 (racemic) [Compound I-1, 3-(2-chlorothiazol-5-yl)-8-methyl-7-oxo-6-phenyl-2,3-dihydrothiazolo[3,2-a]pyrimidin-8-ium-5-olate]
- mortality at 1 ppm [1]: 54%
- Feeding damage (%) (Chilo suppressalis [2]): 15%
- mortality at 1 ppm [3]: 80%
- mortality at 10 ppm [4]: 73%
- mortality at 1 ppm [5]: 50%
- Feeding damage (%) (Chilo suppressalis [6]; Chilo suppressalis neonates, foliar spraying, Dose 200 ppm, 14 DAT): 15%
- mortality at 200 ppm (Chilo suppressalis [6]; Chilo suppressalis, foliar, 336 h): 96%
- mortality at 300 ppm (Chilo suppressalis [7]): 80%

Compound: CCS(=O)(=O)c1cccnc1-c1nc2cc(S(=O)(=O)C(F)(F)F)ccc2o1 [Oxazosulfyl, 2-(3-ethylsulfonyl-2-pyridyl)-5-(trifluoromethylsulfonyl)-1,3-benzoxazole, reference compound]
- Average control % [8]: 50%

Compound: Cc1cccc2sc3nncn3c12 [Tricyclazol, tricyclazole, reference compound]
- Average control % [9]: 50%

Compound: spinetoram [reference compound]
- Average control % [10]: 50%
- Average control % [11]: 0%
- Average control % [12]: 62%
